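Growth conditions: 96-well plates. Treatment: test compound, 48 hours, 5 concentrations. Analysis: linear interpolation between bracketing concentrations; unreached endpoints set to highest concentration. GI50 marks 50% less growth.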 Activity calls are given as the source filed them. No stated cut-off is given here; in the data, active = GI50 up to about 1.1 µM and inactive = higher.
Assays:
Experiment in all cases: growth of human tumour cells (NCI), 48 h
SF-539 = test system: SF-539
TK-10 = test system: TK-10
KM12 = test system: KM12
MDA-MB-435 = test system: MDA-MB-435
HCT-116 = test system: HCT-116
ACHN = test system: ACHN
NCI-H522 = test system: NCI-H522
HOP-92 = test system: HOP-92
M14 = test system: M14
SK-MEL-5 = test system: SK-MEL-5
NCI-H226 = test system: NCI-H226
RXF 393 = test system: RXF 393
Malme-3M = test system: Malme-3M
T47D = test system: T47D
MDA-MB-231 = test system: MDA-MB-231
HOP-62 = test system: HOP-62
PC-3 = test system: PC-3
SNB-75 = test system: SNB-75
U-251 = test system: U-251
786-0 = test system: 786-0
MCF7 = test system: MCF7
OVCAR-8 = test system: OVCAR-8
SK-MEL-2 = test system: SK-MEL-2
SW-620 = test system: SW-620
BT-549 = test system: BT-549
K562 = test system: K562
MOLT-4 = test system: MOLT-4
EKVX = test system: EKVX
HCC 2998 = test system: HCC 2998
HCT-15 = test system: HCT-15
UACC-257 = test system: UACC-257
HL-60 = test system: HL-60
SF-295 = test system: SF-295
COLO 205 = test system: COLO 205
MDA-N = test system: MDA-N
IGROV-1 = test system: IGROV-1
RPMI-8226 = test system: RPMI-8226
NCI/ADR-RES = test system: NCI/ADR-RES
SN12C = test system: SN12C
OVCAR-5 = test system: OVCAR-5
UO-31 = test system: UO-31
Hs-578T = test system: Hs-578T
DU-145 = test system: DU-145
SF-268 = test system: SF-268
SK-OV-3 = test system: SK-OV-3
A549 = test system: A549
UACC-62 = test system: UACC-62
OVCAR-3 = test system: OVCAR-3
A498 = test system: A498
CAKI-1 = test system: CAKI-1
CCRF-CEM = test system: CCRF-CEM
NCI-H23 = test system: NCI-H23
OVCAR-4 = test system: OVCAR-4
SR = test system: SR
HT-29 = test system: HT-29
SNB-19 = test system: SNB-19
LOX IMVI = test system: LOX IMVI
SK-MEL-28 = test system: SK-MEL-28
NCI-H460 = test system: NCI-H460

Compound: N#Cc1c(C#N)c(-c2cccc([N+](=O)[O-])c2)n(-c2ccccc2)c1N
- GI50 (SF-539): 21.1 µM (inactive)
- GI50 (TK-10): > 100 µM (inactive)
- GI50 (KM12): > 100 µM (inactive)
- GI50 (MDA-MB-435): > 100 µM (inactive)
- GI50 (HCT-116): > 100 µM (inactive)
- GI50 (ACHN): > 100 µM (inactive)
- GI50 (NCI-H522): > 100 µM (inactive)
- GI50 (HOP-92): 17.8 µM (inactive)
- GI50 (M14): > 100 µM (inactive)
- GI50 (SK-MEL-5): > 100 µM (inactive)
- GI50 (NCI-H226): 18 µM (inactive)
- GI50 (RXF 393): 41.7 µM (inactive)
- GI50 (Malme-3M): > 100 µM (inactive)
- GI50 (T47D): > 100 µM (inactive)
- GI50 (MDA-MB-231): 38.7 µM (inactive)
- GI50 (HOP-62): 49.4 µM (inactive)
- GI50 (PC-3): > 100 µM (inactive)
- GI50 (SNB-75): 3.33 µM (inactive)
- GI50 (U-251): 44.8 µM (inactive)
- GI50 (786-0): 51.5 µM (inactive)
- GI50 (MCF7): > 100 µM (inactive)
- GI50 (OVCAR-8): 99.3 µM (inactive)
- GI50 (SK-MEL-2): > 100 µM (inactive)
- GI50 (SW-620): > 100 µM (inactive)
- GI50 (BT-549): 5.11 µM (inactive)
- GI50 (K562): > 100 µM (inactive)
- GI50 (MOLT-4): > 100 µM (inactive)
- GI50 (EKVX): > 100 µM (inactive)
- GI50 (HCC 2998): > 100 µM (inactive)
- GI50 (HCT-15): > 100 µM
- GI50 (UACC-257): > 100 µM (inactive)
- GI50 (HL-60): > 100 µM (inactive)
- GI50 (SF-295): 63.2 µM (inactive)
- GI50 (COLO 205): > 100 µM (inactive)
- GI50 (MDA-N): > 100 µM (inactive)
- GI50 (IGROV-1): 89.1 µM (inactive)
- GI50 (RPMI-8226): > 100 µM (inactive)
- GI50 (NCI/ADR-RES): > 100 µM (inactive)
- GI50 (SN12C): > 100 µM (inactive)
- GI50 (OVCAR-5): > 100 µM (inactive)
- GI50 (UO-31): > 100 µM (inactive)
- GI50 (Hs-578T): 55.1 µM (inactive)
- GI50 (DU-145): > 100 µM (inactive)
- GI50 (SF-268): 88.7 µM (inactive)
- GI50 (SK-OV-3): 96.2 µM (inactive)
- GI50 (A549): 33.8 µM (inactive)
- GI50 (UACC-62): 66.1 µM (inactive)
- GI50 (OVCAR-3): > 100 µM (inactive)
- GI50 (A498): 17.8 µM (inactive)
- GI50 (CAKI-1): 44.4 µM (inactive)
- GI50 (CCRF-CEM): > 100 µM (inactive)
- GI50 (NCI-H23): > 100 µM (inactive)
- GI50 (OVCAR-4): 11.5 µM (inactive)
- GI50 (SR): > 100 µM (inactive)
- GI50 (HT-29): > 100 µM (inactive)
- GI50 (SNB-19): 46.8 µM (inactive)
- GI50 (LOX IMVI): > 100 µM (inactive)

Compound: COc1ccccc1N1C(=O)CSC1c1cc(OC)c(OC)c(OC)c1 (centres undefined)
- GI50 (SF-539): 15.8 µM (inactive)
- GI50 (TK-10): > 100 µM (inactive)
- GI50 (KM12): 21.3 µM (inactive)
- GI50 (MDA-MB-435): 14.7 µM (inactive)
- GI50 (HCT-116): 13.3 µM (inactive)
- GI50 (ACHN): > 100 µM (inactive)
- GI50 (NCI-H522): 17.7 µM (inactive)
- GI50 (HOP-92): 50.9 µM (inactive)
- GI50 (M14): > 88.5 µM (inactive)
- GI50 (SK-MEL-28): > 89.9 µM (inactive)
- GI50 (SK-MEL-5): 25.5 µM (inactive)
- GI50 (NCI-H226): > 50 µM (inactive)
- GI50 (RXF 393): > 52.1 µM (inactive)
- GI50 (Malme-3M): > 22.3 µM (inactive)
- GI50 (T47D): 12.4 µM (inactive)
- GI50 (MDA-MB-231): > 100 µM (inactive)
- GI50 (HOP-62): > 100 µM (inactive)
- GI50 (PC-3): > 78.2 µM (inactive)
- GI50 (SNB-75): > 100 µM (inactive)
- GI50 (U-251): 31.1 µM (inactive)
- GI50 (786-0): 18.8 µM (inactive)
- GI50 (MCF7): 16.3 µM (inactive)
- GI50 (OVCAR-8): > 100 µM (inactive)
- GI50 (SK-MEL-2): 55.7 µM (inactive)
- GI50 (SW-620): 27.5 µM (inactive)
- GI50 (BT-549): > 34 µM (inactive)
- GI50 (K562): 24.9 µM (inactive)
- GI50 (MOLT-4): 27.9 µM (inactive)
- GI50 (EKVX): > 100 µM (inactive)
- GI50 (HCC 2998): > 100 µM (inactive)
- GI50 (HCT-15): 50.6 µM
- GI50 (NCI-H460): > 100 µM (inactive)
- GI50 (UACC-257): > 84.7 µM (inactive)
- GI50 (HL-60): 20.5 µM (inactive)
- GI50 (SF-295): > 30.4 µM (inactive)
- GI50 (COLO 205): > 100 µM (inactive)
- GI50 (MDA-N): 11.9 µM (inactive)
- GI50 (IGROV-1): 33 µM (inactive)
- GI50 (RPMI-8226): 16.6 µM (inactive)
- GI50 (NCI/ADR-RES): 69.8 µM (inactive)
- GI50 (SN12C): > 100 µM (inactive)
- GI50 (OVCAR-5): > 100 µM (inactive)
- GI50 (UO-31): > 76.7 µM (inactive)
- GI50 (Hs-578T): > 59.7 µM (inactive)
- GI50 (DU-145): > 100 µM (inactive)
- GI50 (SF-268): > 46.1 µM (inactive)
- GI50 (A549): > 100 µM (inactive)
- GI50 (UACC-62): 20.5 µM (inactive)
- GI50 (OVCAR-3): > 46.3 µM (inactive)
- GI50 (A498): > 100 µM (inactive)
- GI50 (CAKI-1): > 35 µM (inactive)
- GI50 (CCRF-CEM): 13.2 µM (inactive)
- GI50 (NCI-H23): > 100 µM (inactive)
- GI50 (OVCAR-4): > 77.8 µM (inactive)
- GI50 (SR): 10.7 µM (inactive)
- GI50 (HT-29): > 100 µM (inactive)
- GI50 (LOX IMVI): 35.6 µM (inactive)
